In US12458651B2, “Compounds and their uses for alleviating menopause-associated symptoms” (ESTETRA SRL, priority 2018, dated 2025):
Read-outs that look alike come from different tables or passages of the source.

Legend:
[1] = tested on: C-terminal telopeptide (CTX-1); assay: C-terminal telopeptide (CTX-1), marker of bone resorption; type: in vivo; details: E4 20 mg daily
[2] = tested on: postmenopausal women; details: cited from earlier work
[3] = tested on: post-menopausal women; assay: Adverse events (AEs, TEAEs) in the dose-finding study; type: in vivo
From the text: This is confirmed by the following statistical analysis. Using a Poisson regression model with a random effect for the patient and treatment group as a covariate to model the count of TEAEs in the different treatment groups, it can be shown that there is no statistical difference between the treatment groups (p value of 0.099). Second, a chi-square test was used to assess if the prevalence of patients reporting TEAEs in each treatment group was similar. No statistical difference was found between the treatment groups (p value of 0.575).

[4] = tested on: postmenopausal women; details: 2 mg estetrol per day for 28 days; cited from earlier work
[5] = tested on: post-menopausal women; assay: GSM symptom: dysuria; type: in vivo
Experimental: (§1) Change from baseline to week 12 in the following GSM symptoms (VVA subject self-assessment) were recorded: • a) Vaginal dryness (sensation of dryness or burning in the vagina; none=0 mild=1, moderate=2 or severe=3):
• c) Dysuria (sensation of pain or difficulty in urinating; none=0, mild=1, moderate=2 or severe=3): […]

[6] = tested on: post-menopausal women; assay: GSM symptom: vaginal pain associated with sexual activity; type: in vivo
Experimental: as §1
• d) Vaginal pain associated with sexual activity (sensation of pain with sexual intercourse none=0, mild=1, moderate=2 or severe=3): […]

[7] = tested on: post-menopausal women; assay: GSM symptom (VVA self-assessment): vaginal dryness; type: in vivo
Experimental: Change from baseline to week 12 in the following GSM symptoms (VVA subject self-assessment) were recorded: • a) Vaginal dryness (sensation of dryness or burning in the vagina; none=0 mild=1, moderate=2 or severe=3): […]

[8] = Triglycerides level at 15 mg and 20 mg daily doses; type: in vivo; details: 20 mg daily dose in place of 15 mg daily dose
Experimental: In order to better assess the potential for increasing the daily dose beyond the minimum effective dose of 15 mg daily, a number of parameters were followed in a study where estetrol was administered at the increased dose of 20 mg per day.
1. Triglycerides Level (mmol/L)

With `C[C@]12CC[C@@H]3c4ccc(O)cc4CC[C@H]3[C@@H]1[C@@H](O)[C@@H](O)[C@@H]2O` [Estetrol, 1,3,5 (10)-estratrien-3,15alpha,16alpha,17beta-tetrol] the “C-Terminal Telopeptide (CTX-1), Baseline, Mean” value [1] was 422.50 ng/L, the “C-Terminal Telopeptide (CTX-1), Baseline, Median” value [1] was 416.5 ng/L and the “C-Terminal Telopeptide (CTX-1), End Of Treatment Actual Change from Baseline, Mean” value ([1]; after 28 days) was -147.60 ng/L. The “C-Terminal Telopeptide (CTX-1), End Of Treatment Actual Change from Baseline, Median” value ([1]; after 28 days) was -138.0 ng/L, the “C-Terminal Telopeptide (CTX-1), End Of Treatment Actual Value, Mean” value ([1]; after 28 days) was 274.9 ng/L and the “C-Terminal Telopeptide (CTX-1), End Of Treatment Actual Value, Median” value ([1]; after 28 days) was 267.50 ng/L. For the same molecule, the Endometrial thickness ([2]; 2 mg estetrol per day) was “stable”, the Endometrial thickness ([2]; 10 mg estetrol per day) was “increasing” and the “Percentage of patients with TEAE leading to Study Discontinuation” value (“Percentage of patients with TEAE leading” below) ([3]; 2.5 mg group) was 1.9%. For the same molecule, the “Percentage of patients with severe TEAE” value ([3]; 2.5 mg group) was 7.7%, the “Percentage of patients with TEAE leading” value ([3]; 5 mg group) was 6.4% and the “Percentage of patients with severe TEAE” value ([3]; 5 mg group) was 10.6%. The “Average AEs per patient (patients who had AEs)” value ([3]; 10 mg group) was 3.2, the “Percentage of patients with TEAE leading” value ([3]; 10 mg group) was 5.6% and the “Percentage of patients with severe TEAE” value ([3]; 10 mg group) was 7.4%. For the same molecule, the “Average AEs per patient (patients who had AEs)” value ([3]; 15 mg group) was 2.6, the “Percentage of patients with TEAE leading” value ([3]; 15 mg group) was 4.1% and the “Percentage of patients with severe TEAE” value ([3]; 15 mg group) was 6.1%. For the same molecule, the “Mean number of hot flushes and sweating” value [4] was “decrease”, the “Dysuria score (none=0 to severe=3), mean ± SD” value (“Dysuria score … mean ± SD” below) ([5]; E4 2.5 mg, Baseline) was 0.2 ± 0.56 and the “Dysuria score … mean ± SD” value ([5]; E4 2.5 mg, Week 12) was 0 ± 0.19. For the same molecule, the “Dysuria score … mean ± SD” value ([5]; E4 5 mg, Baseline) was 0.2 ± 0.56, the “Dysuria score … mean ± SD” value ([5]; E4 5 mg, Week 12) was 0 ± 0.20 and the “Dysuria score … mean ± SD” value ([5]; E4 10 mg, Baseline) was 0.2 ± 0.58. The “Dysuria score … mean ± SD” value ([5]; E4 10 mg, Week 12) was 0.1 ± 0.23, the “Dysuria score … mean ± SD” value ([5]; E4 15 mg, Baseline) was 0.3 ± 0.58 and the “Dysuria score … mean ± SD” value ([5]; E4 15 mg, Week 12) was 0.3 ± 0.61. The “Vaginal pain associated with sexual activity score (none=0 to severe=3), mean ± SD” value (“Vaginal pain associated … mean ± SD” below) ([6]; E4 2.5 mg, Baseline) was 0.6 ± 0.77, the “Vaginal pain associated … mean ± SD” value ([6]; E4 2.5 mg, Week 12) was 0.3 ± 0.73 and the “Vaginal pain associated … mean ± SD” value ([6]; E4 5 mg, Baseline) was 1 ± 1.07. For the same molecule, the “Vaginal pain associated … mean ± SD” value ([6]; E4 5 mg, Week 12) was 0.5 ± 0.78, the “Vaginal pain associated … mean ± SD” value ([6]; E4 10 mg, Baseline) was 0.6 ± 0.77 and the “Vaginal pain associated … mean ± SD” value ([6]; E4 10 mg, Week 12) was 0.2 ± 0.36. The “Vaginal pain associated … mean ± SD” value ([6]; E4 15 mg, Baseline) was 0.7 ± 0.90, the “Vaginal pain associated … mean ± SD” value ([6]; E4 15 mg, Week 12) was 0.3 ± 0.54 and the “Vaginal dryness score (none=0 to severe=3), mean ± SD” value (“Vaginal dryness score … mean ± SD” for short) ([7]; E4 2.5 mg, Baseline) was 1 ± 0.90. The “Vaginal dryness score … mean ± SD” value ([7]; E4 2.5 mg, Week 12) was 0.5 ± 0.77, the “Vaginal dryness score … mean ± SD” value ([7]; E4 5 mg, Baseline) was 1.3 ± 0.94 and the “Vaginal dryness score … mean ± SD” value ([7]; E4 5 mg, Week 12) was 0.7 ± 0.86. The “Vaginal dryness score … mean ± SD” value ([7]; E4 10 mg, Baseline) was 1 ± 0.93, the “Vaginal dryness score … mean ± SD” value ([7]; E4 10 mg, Week 12) was 0.5 ± 0.75 and the “Vaginal dryness score … mean ± SD” value ([7]; E4 15 mg, Baseline) was 1.1 ± 1.04. The “Vaginal dryness score … mean ± SD” value ([7]; E4 15 mg, Week 12) was 0.5 ± 0.68 and the “Lipid parameters (triglycerides, cholesterol, HDL, LDL) and glucose level” value [8] was “do not behave significantly differently”.
